{
  "source": "patent US9035054B2",
  "about": "“Dinitroxide-type biradical compounds optimized for dynamic nuclear polarization (DNP)” (Universite D'Aix-Marseille, priority 2009, dated 2015)",
  "assay": "Solubility in water",
  "conditions": "compared with TOTAPOL",
  "data": [
    {"substance": "bis-TEMPO-bis-Ketal [bTbK]", "values": [
      {"measurement": "solubility in water", "result": "less good solubility in water"}
    ]}
  ]
}
